Test results reported in US12083106B2, “Methods of using a pharmaceutical composition containing pirfenidone in sustained-release tablet form” (Excalibur Pharmaceuticals, Inc., priority 2011, dated 2024).

What was measured:
[1] = test system: focal segmental glomerulosclerosis; details: nephrotic syndrome and focal segmental glomerulosclerosis; cited from earlier work
[2] = test system: progressive renal disease; details: animal models; cited from earlier work
TNF-α [3] = assay: TNF-α serum levels in female rats with silicone implants in mammary glands (ELISA); type: in vivo; details: daily oral regimen during 21 days; extended release formula before conversion into tablets
Description: TNF-α serum levels determination in female rats submitted to the placement of silicone implants in mammary glands for inducing contracture development are shown in FIG. 6. The animals administered a daily regimen of oral Pirfenidone during 21 days. […] TNF-α levels were determined through a commercial ELISA kit.

[4] = Pirfenidone bioavailability study in healthy volunteers; type: in vivo, human; details: 600 mg sustained-release tablet form; 11 healthy volunteers
Description: Pirfenidone Bioavailability Study in Healthy Volunteers According to the Pharmacopoeia Standards
Said analyses were performed by a laboratory authorized by the Mexican Health Secretariat (Data not shown).
Maximum concentration data evidenced that the bioavailability is extrapolated to other lower concentrations, i.e., 100, 200 or 400 mg.

[5] = test system: fibrosis in the mammary capsule; details: administered orally; female rats with silicone implants; cited from earlier work
TGF-β1 [6] = assay: TGF-β1 serum levels in female rats with silicone implants in mammary glands (ELISA); type: in vivo; details: daily oral regimen during 21 days; extended release formula before conversion into tablets
Description: TGF-β1 serum levels determination in female rats submitted to the placement of silicone implants in mammary glands for inducing contracture development are shown in FIG. 5. The animals were administered a daily regimen of oral Pirfenidone during 21 days. […] TGF-β1 levels were determined through a commercial ELISA kit.

[7] = test system: breast capsular contracture; assay: Pilot open prospective study in patients with breast capsular contracture (Baker scale, echosonography); type: in vivo, human; details: for Implant fibrous capsule ILQ thickness, mean: Inner Lower Quadrant; for Implant fibrous capsule IUQ thickness, mean: Inner Upper Quadrant; for Implant fibrous capsule OLQ thickness, mean: Outer Lower Quadrant; for Implant fibrous capsule OUQ thickness, mean: Outer Upper Quadrant
Description: It is a pilot, open, prospective, longitudinal and analytical essay in which 17 patients diagnosed with an important breast capsular contracture (Grade III and Grade IV, Baker Scale) were treated with Pirfenidone 600 mg administered orally as sustained-release tablets three times per day (every 8 hours) during six months. A blood sample was taken from each patient in order to determine the genetic markers (TGF-β1). […], three Breast echosonographies were made, one at the beginning, the other at the end of the treatment (6 months) and the last one 6 months after the suspension of Pirfenidone treatment (12 months). Two parameters were evaluated: antero-posterior diameter and capsular thickness in all its quadrants (contrasting thickness measurements with the radiological parameters established by Tomas Stavros, 2006 and the radiological clinical correlation of thickness vs Baker Scale established by Alon Zahavi M D, 2006 for the diagnosis of Capsular Contracture). Free liquid in the capsule was looked for, as well as retraction or rupture signs through 5-12 MHz linear or curve transductors. During 12 months, a Breast Clinical Evaluation was also conducted on a monthly basis using Baker Classification. Deformation, texture through palpation and sensitivity were evaluated. A registration of each evaluation was made with digital photographs. The clinical and radiological changes of each breast were evaluated by a plastic surgeon and a qualified radiologist. The statistical analysis included 20 cases, taking into account that 3 patients presented bilateral capsular contracture of different grade in each breast; a total of 20 breasts were analyzed. Finally, the statistical analysis of the ordinal scale variables was conducted with means and ranges; and for the contrasts, Wilcoxon matched-pairs signed-ranks and Chi^2 were used. With regard to the Ratio Interval variables, the mean and standard deviation were used; and for the contrast, Student's t test for paired samples was used in which a case is compared against another case.

TNF-α [8] = assay: TNF-α serum levels in animals with chronic hepatic damage by CCl4 (ELISA); type: in vivo; details: treated vs not treated
[9] = test system: chronic renal failure secondary to primary nephropathy; assay: Prospective, open label, 12-month clinical trial in patients with primary nephropathy with renal damage; type: in vivo, human; details: oral sustained-release tablets every 12 hours, 12 months
Description: The present study is a prospective, open label, 12-month clinical trial including 30 patients with primary nephropathy, with renal damage (stages 1 to 4 of the KDIGO Classification) between 10 and 40 years of age, from both sexes. […] Said evaluation phase was useful so that the patient could become his/her own control. All of the patients received oral Pirfenidone (in sustained-release tablet form) administered every 12 hours containing 2400 mg/1.73 m^2 BSA, equivalent to […].; besides, they also received a conventional treatment appropriate for primary nephropathy and CRF, such as antihypertensives, alpha-ketoanalogues, phosphate chelating agents, angiotensin II antagonist, low-protein diet, etc. […] Two Doppler ultrasonographic studies were performed on each patient at the beginning of the study and at 12 months. Drug adverse events were evaluated and the loss of renal function and loss percentage were quantified. The use of Pirfenidone in renal function was monitored through cystatin C, plasma reciprocal creatinine and creatinine clearance in 24-hour urine collection.

[10] = renal failure patients treated with hemodialysis; cited from earlier work
TGF-β1 [11] = assay: TGF-β1 serum levels in animals with chronic hepatic damage by CCl4 (ELISA); type: in vivo; details: treated vs not treated
hepatic fibrosis = details: patients with hepatic fibrosis; expanded study; cited from earlier work
[12] = Initial (before treatment), 20 cases

For `Cc1ccc(=O)n(-c2ccccc2)c1` [Pirfenidone, 5-methyl-1-phenyl-2-(1H)-pyridone], the “delay of renal function impairment” value [1] is given as “favorable results”, the TGF-β expression [2] is given as “reduces TGF-β expression” and the “development of progressive renal disease” value [2] is given as “Can prevent the development of progressive renal disease”. For the same compound, the “growth, development and toxic effects in treated animals” value [2] was “grew and developed normally and without toxic effects”, the proteinuria levels [2] was “Reduces proteinuria levels” and the “renal function / collagen accumulation in the renal cortex” value [2] was “Improves renal function reducing collagen accumulation in the renal cortex”. For the same compound, the “urea nitrogen and serum creatinine levels” value [2] was “Reduces urea nitrogen and serum creatinine levels”, the “action on TNF-α (TNF-α serum levels, FIG. 6)” value (TNF-α [3]) was “extremely potent and selective TNF-α inhibiting action” and the “time till which bioavailability is prolonged” value [4] was 12 h. For the same compound, the “development of fibrosis in the mammary capsule” value [5] was “prevents the development of the characteristic fibrosis”, the “action on TGF-β production (TGF-β1 serum levels, FIG. 5)” value (TGF-β1 [6]) was “extremely potent and selective inhibiting action” and the “change of breast capsular contracture grade, all cases” value ([7]; 600 mg SR tablets orally three times per day, six months, 20 cases) was “reduction of breast capsular contracture grade”. For the same compound, the “cases with relapse of capsular contracture (WCSECC to grade III)” value ([7]; 6-month follow up after Pirfenidone discontinuation, 1 case grade IV, use of steroids and excessive exercise) was 5%, the “number of cases WCSECC (Without Clinical or Sonographic Evidence of Capsular Contracture)” value ([7]; 6 Months (end of treatment, 600 mg SR tablets three times per day), 20 cases) was 10 cases and the “number of cases with contracture grade I (Baker Scale)” value ([7]; 6 Months, 20 cases) was 5 cases. The “number of cases with contracture grade III (Baker Scale)” value ([7]; 6 Months, 20 cases) was 5 cases, the “patients with side effects (stomach aches, fatigue, skin dermatosis, photosensitivity)” value ([7]; 6 of 17 patients) was 35% and the “mean duration of side effects” value ([7]; 6 patients with side effects) was 10.8 days. The “BAKER SCALE Mean” value ([7]; 12-month follow-up, n = 20, P 0.0001 vs beginning) was 0.5, the “number of cases WCSECC” value ([7]; 12 months (6 months after suspension of treatment), 20 cases) was 14 cases and the “number of cases with contracture grade II (Baker Scale)” value ([7]; 12 months, 20 cases) was 1 cases. For the same compound, the “number of cases with contracture grade III (Baker Scale)” value ([7]; 12 months, 20 cases) was 5 cases, the “BAKER SCALE Mean (Range)” value ([7]; Beginning of the study, n = 20) was 4 (3-4) and the “Implant fibrous capsule ILQ thickness, mean” value ([7]; Beginning) was 1.86 centimeters. The “Implant fibrous capsule IUQ thickness, mean” value ([7]; Beginning) was 1.6 centimeters, the “Implant fibrous capsule OLQ thickness, mean” value ([7]; Beginning) was 1.775 centimeters and the “Implant fibrous capsule OUQ thickness, mean” value ([7]; Beginning) was 1.505 centimeters. The “Implant fibrous capsule ILQ thickness, mean” value ([7]; End) was 1.115 centimeters, the “Implant fibrous capsule IUQ thickness, mean” value ([7]; End) was 1.19 centimeters and the “Implant fibrous capsule OLQ thickness, mean” value ([7]; End) was 1.185 centimeters. For the same compound, the “Implant fibrous capsule OUQ thickness, mean” value ([7]; End) was 1.18 centimeters, the “number of cases with contracture grade III (Baker Scale)” value [7, 12] was 9 cases and the “number of cases with contracture grade IV (Baker Scale)” value [7, 12] was 11 cases. For the same compound, the “breast capsular contracture evolution, Baker scale (FIG. 1)” value ([7]; all the cases, after PFD administration) was “important improvement”, the “Initial AP Diameter of the breast implant, mean” value ([7]; echographically measured at the beginning (before treatment)) was 7.57 centimeters and the “AP Diameter at 12 months, mean” value ([7]; echographically measured, P = N.S. vs 6 months) was 6.085 centimeters. The “AP Diameter at 6 months, mean” value ([7]; echographically measured, P ≤ .001 vs beginning) was 6.425 centimeters, the “cases with gradual reduction of antero-posterior diameter (APD) and capsule thickness” value ([7]; echographies at 6 and 12 months, 19 cases) was 95% and the “cases showing retraction data and light subcapsular liquid” value ([7]; end of the study, group that passed from grade IV to grade III, two cases) was 10%. The “contracture state of left breast, single patient (FIG. 2)” value ([7]; initially grade III, after six-month PFD administration) was “Not Detectable by Ultrasound or Clinical Examination”, the “contracture state of both breasts, single patient (FIG. 3)” value ([7]; initially grade IV, end of the protocol) was “Capsular Contracture Not Detectable by Ultrasound or Clinical Examination” and the “cases reduced from grade IV to grade II” value ([7]; of 20 cases (1 case)) was 5%. The “cases initially grade IV that concluded WCSECC” value ([7]; of 20 cases (5 cases)) was 25%, the “cases reduced from grade IV to grade III” value ([7]; of 20 cases (5 cases)) was 25% and the “cases initially grade III that concluded WCSECC” value ([7]; of 20 cases (9 cases)) was 45%. For the same compound, the “cases concluded Without Clinical or Sonographic Evidence of Capsular Contracture (WCSECC)” value ([7]; of 20 cases (n=14)) was 70%, the “cases of relapse (FIG. 1)” value ([7]; six-month follow-up) was “one” and the “relapse, single patient (FIG. 2)” value ([7]; six-month follow-up) was “lack of relapse”. The “TNF-α serum level (FIG. 6)” value (TNF-α [8]) was “lower TNF-α serum level”, the “renal damage progression rate” value ([9]; 2400 mg/1.73 m^2 BSA, phases 1-4 KDIGO) was “influenced positively” and the “drug side-effects in patients with primary nephropathy” value [9] was “limited to a minimum percentage of patients and disappeared rapidly”. The effect on proteinuria [9] was “beneficial effect”, the “histological damage to the affected kidneys (comparative ultrasonographic changes, beginning vs end of treatment)” value [9] was “detains the histological damage” and the “need to adjust dose in patients with renal damage (pharmacokinetics)” value [10] was “not necessary to adjust the pirfenidone dose”. For the same compound, the “tolerability in patients with Terminal Chronic Renal Failure (TCRF)” value [10] was “well tolerated”, the “TGF-β1 serum level (FIG. 5)” value (TGF-β1 [11]) was “lower TGF-β1 serum level” and the “effects evidenced through hepatic biopsy” value (hepatic fibrosis) was “beneficial effects”.
